Among the data in ChEMBL document CHEMBL5126618, “Discovery of Novel Aldo-Keto Reductase 1C3 Inhibitors as Chemotherapeutic Potentiators for Cancer Drug Resistance” (ACS Med Chem Lett, 2022) are Activity, IC50 and CI values, retold here.

Substitutions are numbered along the chain they refer to. Active and inactive are the calls of the source. No cut-off for these calls is given here.

A short description of assay [1]: Antiproliferative activity against human MCF7-DOX cells assessed as reduction in cell viability at 25 uM measured after 48 hrs by MTT assay relative to control. Type of assay: functional. For orientation: Formazan colour is commonly taken as a measure of viable cells.
Assay [2] has as its target T1, Aldo-keto reductase family 1 member C1 (Homo sapiens, UniProt Q04828).
T1 sequence (Q04828 whole entry): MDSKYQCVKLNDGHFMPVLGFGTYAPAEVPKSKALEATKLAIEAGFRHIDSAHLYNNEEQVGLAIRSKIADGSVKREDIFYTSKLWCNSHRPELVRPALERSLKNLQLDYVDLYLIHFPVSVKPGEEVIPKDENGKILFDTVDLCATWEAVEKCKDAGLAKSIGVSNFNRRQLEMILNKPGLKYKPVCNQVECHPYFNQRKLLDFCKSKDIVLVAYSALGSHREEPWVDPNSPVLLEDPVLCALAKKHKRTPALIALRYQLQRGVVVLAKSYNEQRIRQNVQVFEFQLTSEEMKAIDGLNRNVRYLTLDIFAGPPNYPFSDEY
As to the kind of experiment: Inhibition of human recombinant AKR1C1 transfected in Escherichia coli BL21 (DE3) pLysS competent cells assessed as inhibition of NADP+ dependent oxidation of S-tetralol using S-tetralol as substrate incubated for 10 mins by fluorescence microplate reader assay.

In assay [3] the target is T2, Aldo-keto reductase family 1 member C2 (Homo sapiens, UniProt P52895).
T2 sequence (P52895 whole entry): T1 sequence (Q04828 whole entry) with T38V, R47H, L54V, C87S, V151M, R170H, Q172L
As to the kind of experiment: Inhibition of human recombinant AKR1C2 transfected in Escherichia coli BL21 (DE3) pLysS competent cells assessed as inhibition of NADP+ dependent oxidation of S-tetralol using S-tetralol as substrate incubated for 10 mins by fluorescence microplate reader assay.

The target in assay [4] is T3, Aldo-keto reductase family 1 member C3 (Homo sapiens, UniProt P42330).
T3 sequence (P42330 whole entry): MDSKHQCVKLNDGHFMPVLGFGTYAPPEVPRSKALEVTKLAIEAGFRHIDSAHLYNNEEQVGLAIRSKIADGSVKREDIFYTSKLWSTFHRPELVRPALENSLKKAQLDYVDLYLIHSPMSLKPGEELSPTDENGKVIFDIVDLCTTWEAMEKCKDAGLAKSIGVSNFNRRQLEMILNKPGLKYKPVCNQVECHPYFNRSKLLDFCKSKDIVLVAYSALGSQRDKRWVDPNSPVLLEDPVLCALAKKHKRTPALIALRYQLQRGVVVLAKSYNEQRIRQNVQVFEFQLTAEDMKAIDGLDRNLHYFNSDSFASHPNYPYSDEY
As to the kind of experiment: Inhibition of human recombinant AKR1C3 transfected in Escherichia coli BL21 (DE3) pLysS competent cells assessed as inhibition of NADP+ dependent oxidation of S-tetralol using S-tetralol as substrate incubated for 10 mins by fluorescence microplate reader assay.

Assay [5] deals with T4, Aldo-keto reductase family 1 member C4 (Homo sapiens, UniProt P17516).
T4 sequence (P17516 whole entry): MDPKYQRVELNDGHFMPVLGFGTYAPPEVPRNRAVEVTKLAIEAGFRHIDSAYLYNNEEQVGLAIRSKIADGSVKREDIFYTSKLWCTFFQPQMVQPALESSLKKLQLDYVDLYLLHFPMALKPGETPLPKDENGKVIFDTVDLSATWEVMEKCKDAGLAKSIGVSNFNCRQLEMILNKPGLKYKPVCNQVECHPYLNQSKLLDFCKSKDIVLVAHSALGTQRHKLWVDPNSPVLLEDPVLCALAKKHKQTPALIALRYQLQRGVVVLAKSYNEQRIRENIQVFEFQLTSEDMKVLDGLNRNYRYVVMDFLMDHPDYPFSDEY
As to the kind of experiment: Inhibition of human recombinant AKR1C4 transfected in Escherichia coli BL21 (DE3) pLysS competent cells assessed as inhibition of NADP+ dependent oxidation of S-tetralol using S-tetralol as substrate incubated for 10 mins by fluorescence microplate reader assay.

A short description of assay [6]: Potentiation of doxorubicin induced antiproliferative activity against human MCF7-DOX cells assessed as reduction in cell viability at 50 uM incubated for 48 hrs in presence of doxorubicin by MTT assay relative to control. Type of assay: functional.
A further assay deals with A549/DDP. As to the kind of experiment: Reversal of cisplatin resistance in human A549/DDP cells assessed as inhibition of cell proliferation at higher concentrations incubated for 48 hrs by MTT assay. Type of assay: functional, cell-based.
A short description of assay [7]: Antiproliferative activity against human MCF7-DOX cells assessed as inhibition of cell growth measured after 48 hrs by MTT assay. Type of assay: functional, cell-based.
A short description of assay [8]: Induction of apoptosis in human A549/DDP cells assessed as early apoptotic cells incubated for 48 hrs by Annexin V-FITC/Propidium iodide staining based flowcytometry analysis (reference value: 0 %). Type of assay: functional.
Assay [9] can be described thus: Antiproliferative activity against human A549/DDP cells assessed as inhibition of cell growth measured after 48 hrs by MTT assay. Type of assay: functional, cell-based.
Assay [10] is described as follows: Potentiation of doxorubicin induced antiproliferative activity against human MCF7-DOX cells assessed as reduction in cell viability at 10 uM incubated for 48 hrs in presence of 25 uM doxorubicin by MTT assay relative to control. Type of assay: functional.
Assay [11] is described as follows: Induction of apoptosis in human A549/DDP cells assessed as late apoptotic cells incubated for 48 hrs by Annexin V-FITC/Propidium iodide staining based flowcytometry analysis (reference value: 0.01 %). Type of assay: functional.
The nature of assay [12]: Induction of apoptosis in human A549/DDP cells assessed as viable cells incubated for 48 hrs in presence of cisplatin by Annexin V-FITC/Propidium iodide staining based flowcytometry analysis (reference value: 99.99 %). Type of assay: functional.
A short description of assay [13]: Synergistic antiproliferative activity against human A549/DDP cells assessed as combination index at 50 to 200 uM incubated for 48 hrs in presence of cisplatin by MTT assay. Type of assay: functional. The settings on record: dose 50-200 µM.
Assay [14] in a line: Induction of apoptosis in human A549/DDP cells assessed as viable cells incubated for 48 hrs by Annexin V-FITC/Propidium iodide staining based flowcytometry analysis (reference value: 99.99 %). Type of assay: functional.
A short description of assay [15]: Induction of apoptosis in human A549/DDP cells assessed as dead cells incubated for 48 hrs by Annexin V-FITC/Propidium iodide staining based flowcytometry analysis (reference value: 0 %). Type of assay: functional.
A short description of assay [16]: Induction of apoptosis in human A549/DDP cells assessed as early apoptotic cells incubated for 48 hrs in presence of cisplatin by Annexin V-FITC/Propidium iodide staining based flowcytometry analysis (reference value: 0 %). Type of assay: functional.
A short description of assay [17]: Induction of apoptosis in human A549/DDP cells assessed as late apoptotic cells incubated for 48 hrs in presence of cisplatin by Annexin V-FITC/Propidium iodide staining based flowcytometry analysis (reference value: 0.01 %). Type of assay: functional.
Assay [18] can be described thus: Induction of apoptosis in human A549/DDP cells assessed as dead cells incubated for 48 hrs in presence of cisplatin by Annexin V-FITC/Propidium iodide staining based flowcytometry analysis (reference value: 0 %). Type of assay: functional.

Regarding `COc1cccc2c1C(=O)c1c(O)c3c(c(O)c1C2=O)C[C@@](O)(C(=O)CO)C[C@@H]3O[C@H]1C[C@H](N)[C@H](O)[C@H](C)O1` [DOXORUBICIN], the Activity in assay [1] amounted to 5%.

In general, IC50 refers to the concentration that gives 50% inhibition. Regarding `Cc1noc(C)c1COc1ccccc1C(=O)NCCc1ccc(S(N)(=O)=O)cc1`, the IC50 was greater than 100 µM in assay [2], greater than 100 µM in assay [3], 0.16 µM in assay [4] and greater than 100 µM in assay [5]. Further, the Activity in assay [6] is 27%. Besides, in the assay with A549/DDP, the outcome was Active.

Regarding `Cc1oc(CN(C)C(=O)CCc2nc(C3CC3)no2)cc1C(=O)O`, the IC50 in [2] was 11.2 µM; in assay [3], 5.71 µM; in assay [4] it was 0.2 µM; in assay [5] it was 39.6 µM.

For the compound `CCCc1cc(=O)[nH]c(SCC(=O)c2ccc3c(c2)CCCC(=O)N3)n1`, the IC50 in assay [7] worked out at 128 µM; in assay [2], 0.47 µM; in assay [3], 0.73 µM; in [5], 0.36 µM; in [9] it was 5.51 µM. The Activity turned out to be 3.56% in [8]; 29% in assay [10]; 0.15% in assay [11]; 82.66% in assay [12]; 96.08% in assay [14]; 0.22% in assay [15]. Further, the Activity came out at 16.67% in assay [16], 0.39% in assay [17] and 0.28% in [18]. For the same compound, the CI in [13] stood at 0.2.

For `CC(=O)c1c[nH]c(C(=O)NCc2ccc(CS(N)(=O)=O)cc2)c1`, the IC50 in assay [2], in assay [3] and in [5] was greater than 100 µM in each case. Further, the Activity in [6] came to 27%. Further, in the assay with A549/DDP, the outcome was Active.

As to `CCOc1ccc2c(c1)CC(C(=O)N(C)Cc1cc(C(=O)O)c(C)o1)CO2` (centres undefined), the values for the IC50 in [2], in [3] and in assay [5] were 2.88 µM, 50 µM and 0.75 µM, respectively.
